Source: the supplement of paper PMC11451515

Tested on: P12-Ichikawa
Experiment: cell viability relative to DMSO control; higher = less cytotoxic
Settings: 48 h
Summary of the method: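 NOMO1 or SEM cells were plated at 500 cells/well and P12-Ichikawa cells at 1000 cells/well in 1536-well plates (5 μl), after each leukemia line had been adapted for at least four passages in each medium. Pin dosing delivered library compounds in DMSO at 11 threefold concentrations, 47 μM to 0.79 nM. CellTiter-Glo One luminescence was read after 48 h at 37°C. Viability is reported as a per-plate percentage of DMSO wells, with cell-free wells as background.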

[1] = HPLM + 10% dialyzed FBS, 0.000781 µM
[2] = HPLM + 10% dialyzed FBS, 0.00234 µM
[3] = HPLM + 10% dialyzed FBS, 0.00702 µM
[4] = HPLM + 10% dialyzed FBS, 0.0211 µM
[5] = HPLM + 10% dialyzed FBS, 0.0632 µM
[6] = HPLM + 10% dialyzed FBS, 0.19 µM
[7] = HPLM + 10% dialyzed FBS, 0.569 µM
[8] = HPLM + 10% dialyzed FBS, 1.71 µM
[9] = HPLM + 10% dialyzed FBS, 5.12 µM
[10] = HPLM + 10% dialyzed FBS, 15.4 µM
[11] = HPLM + 10% dialyzed FBS, 46.1 µM
[12] = RPMI 5 mM glucose + 10% FBS, 0.000781 µM
[13] = RPMI 5 mM glucose + 10% FBS, 0.00234 µM
[14] = RPMI 5 mM glucose + 10% FBS, 0.00702 µM
[15] = RPMI 5 mM glucose + 10% FBS, 0.0211 µM
[16] = RPMI 5 mM glucose + 10% FBS, 0.0632 µM
[17] = RPMI 5 mM glucose + 10% FBS, 0.19 µM
[18] = RPMI 5 mM glucose + 10% FBS, 0.569 µM
[19] = RPMI 5 mM glucose + 10% FBS, 1.71 µM
[20] = RPMI 5 mM glucose + 10% FBS, 5.12 µM
[21] = RPMI 5 mM glucose + 10% FBS, 15.4 µM
[22] = RPMI 5 mM glucose + 10% FBS, 46.1 µM
[23] = RPMI 5 mM glucose + 10% dialyzed FBS, 0.000781 µM
[24] = RPMI 5 mM glucose + 10% dialyzed FBS, 0.00234 µM
[25] = RPMI 5 mM glucose + 10% dialyzed FBS, 0.00702 µM
[26] = RPMI 5 mM glucose + 10% dialyzed FBS, 0.0211 µM
[27] = RPMI 5 mM glucose + 10% dialyzed FBS, 0.0632 µM
[28] = RPMI 5 mM glucose + 10% dialyzed FBS, 0.19 µM
[29] = RPMI 5 mM glucose + 10% dialyzed FBS, 0.569 µM
[30] = RPMI 5 mM glucose + 10% dialyzed FBS, 1.71 µM
[31] = RPMI 5 mM glucose + 10% dialyzed FBS, 5.12 µM
[32] = RPMI 5 mM glucose + 10% dialyzed FBS, 15.4 µM
[33] = RPMI 5 mM glucose + 10% dialyzed FBS, 46.1 µM

SMILES	cell viability [1]	cell viability [2]	cell viability [3]	cell viability [4]	cell viability [5]	cell viability [6]	cell viability [7]	cell viability [8]	cell viability [9]	cell viability [10]	cell viability [11]	cell viability [12]	cell viability [13]	cell viability [14]	cell viability [15]	cell viability [16]	cell viability [17]	cell viability [18]	cell viability [19]	cell viability [20]	cell viability [21]	cell viability [22]	cell viability [23]	cell viability [24]	cell viability [25]	cell viability [26]	cell viability [27]	cell viability [28]	cell viability [29]	cell viability [30]	cell viability [31]	cell viability [32]	cell viability [33]
COc1cc2nccc(Oc3ccc(NC(=O)C4(C(=O)Nc5ccc(F)cc5)CC4)cc3)c2cc1OC	114%	91.5%	122%	111%	115%	111%	118%	113%	96.3%	71.7%	34%	112%	112%	116%	117%	119%	116%	112%	114%	106%	82.5%	19.7%	106%	118%	120%	121%	123%	124%	113%	113%	101%	60.5%	28.9%
CCOC(=O)C/1=C(C)/NC(=S)NC1C2=CC=CC(=C2)O (stereo unspecified)	110%	115%	115%	118%	125%	59%	9.07%	6.6%	5.26%	6.98%	5.13%	106%	110%	128%	128%	112%	42.6%	11%	8.73%	7.18%	8.04%	9.16%	102%	102%	113%	113%	120%	93.4%	21%	14.2%	7.5%	9.98%	11.8%
Fc1cc(-c2cccc3ncc(-c4cnn(C5CCNCC5)c4)nc23)cc(F)c1CN1CCOCC1	119%	113%	122%	115%	123%	118%	108%	113%	68.8%	57.7%	28.9%	122%	123%	120%	118%	122%	118%	118%	120%	91.2%	70.7%	27.1%	119%	122%	119%	114%	110%	120%	123%	101%	87.2%	60.1%	15.1%
Cc1cc(Nc2ncc(Cl)c(Nc3ccccc3[S+](=O)([O-])C(C)C)n2)c(OC(C)C)cc1C1CCNCC1	111%	113%	110%	117%	112%	115%	101%	105%	105%	90.6%	30.2%	111%	104%	113%	118%	125%	112%	108%	96.1%	94.1%	69.9%	5.5%	117%	117%	118%	116%	115%	117%	111%	113%	107%	89.3%	10.5%
COc1cc2ncnc(-n3nc(-c4ccccn4)nc3N)c2cc1OC	93.6%	97.9%	102%	99.7%	95.9%	103%	105%	104%	88.5%	96%	0.508%	89.2%	100%	98.6%	101%	98%	105%	107%	102%	78%	82.7%	0.293%	83.8%	92.6%	90%	81.6%	93.2%	107%	96.2%	101%	82.6%	82.9%	0.35%
CC(C)(C)OC(=O)CN(Cc1ccc(Cl)cc1)Cc1ccc([N+](=O)[O-])s1	99.7%	107%	107%	101%	99%	98.3%	96.2%	96.5%	91.6%	93%	73.6%	92.8%	99.2%	89%	97.1%	88.2%	99.2%	93.3%	99.9%	92.8%	88.9%	69.3%	99%	90.7%	95.9%	92%	94.9%	92%	87.9%	86.6%	82.4%	91.2%	62.6%
CCCCN(CCCC)CCC(O)c1cc2c(Cl)cc(Cl)cc2c2cc(C(F)(F)F)ccc12 (stereo unspecified)	120%	122%	118%	120%	130%	131%	130%	131%	131%	124%	121%	115%	126%	119%	118%	135%	147%	141%	150%	132%	105%	88.3%	108%	110%	114%	117%	120%	125%	130%	138%	131%	141%	105%
